{"source": "patent US20170176446A1", "about": "“Methods for Determining the Oncogenic Condition of Cell, Uses Thereof, and Methods for Treating Cancer” (INSERM (INSTITUT NATIONAL DE LA SANTE ET DE LA RECHERCHE …, priority 2009, published 2017)", "key": {"[1]": {"test_system": "MDA-MB-231", "experiment": "Inhibition of OCDO production by PBPE in MDA-MB-231", "type": "cell-based", "settings": "Homo sapiens, 40 μM PBPE, 48 hours", "method": "(§1) An analogous experiment was reproduced with different cell lines, with the cells tested being incubated for 48 hours in a 40 μM solution of PBPE. It was noted that the OCDO was 100% inhibited for all the lines in the following table that were tested:\n(§2) Generally, in order to establish the percentages of OCDO inhibition from the thin-layer chromatography (TLC) plates obtained as in assay 2, the radioactive metabolites are identified and quantified on the basis of said plates using a europium-sensitive plate of GP Phosphor screen type (GE Healthcare) and a Storm 840 phosphorimagor (GE Healthcare). The proportion of radiolabeled oxysterols is determined on the autoradiogram obtained by densitometry using the Image Quant 5.2 software. The percentage is calculated on the basis of the ratio between the amount of oxysterols quantified divided by the sum of the amounts of oxysterols (CEE+CE+CT+OCDO). Since the CEE (CE ester) originates exclusively from the CE, the percentage CE is calculated on the basis of the ratio (CE+CEE)/(CE+CEE+CT+OCDO)."}, "[2]": {"test_system": "B-16-F10", "experiment": "Inhibition of OCDO production by PBPE in B-16-F10", "type": "cell-based, murine", "settings": "Mus musculus, B16-F10, 40 μM PBPE, 48 hours", "method": "as §1, §2"}, "[3]": {"test_system": "Saos-2", "experiment": "Inhibition of OCDO production by PBPE in Saos-2", "type": "cell-based", "settings": "Homo sapiens, 40 μM PBPE, 48 hours", "method": "as §1, §2"}, "[4]": {"test_system": "P19", "experiment": "Inhibition of OCDO production by PBPE in P19", "type": "cell-based, murine", "settings": "Mus musculus, 40 μM PBPE, 48 hours", "method": "as §1, §2"}, "[5]": {"test_system": "A-549", "experiment": "Inhibition of OCDO production by PBPE in A-549", "type": "cell-based", "settings": "Homo sapiens, A549, 40 μM PBPE, 48 hours", "method": "as §1, §2"}, "[6]": {"test_system": "MCF7 cells", "experiment": "OCDO production by MCF7 cells incubated with [14C]CE, thin-layer chromatography", "type": "cell-based, human", "method_in_brief": "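MCF7 cells incubated with [14C]CE; lipids extracted, separated by silica TLC in ethyl acetate and quantified by phosphorimager densitometry. OCDO inhibition came from oxysterol proportions, OCDO over CEE+CE+CT+OCDO.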"}, "[7]": {"biological_target": "T1, ChEH (Rattus norvegicus, UniProt Q9JJ46)", "T1 construct": "150 μg of rat liver microsome proteins are incubated; from tissue; host or cells: rat liver microsomes", "T1 sequence (Q9JJ46 1-230)": "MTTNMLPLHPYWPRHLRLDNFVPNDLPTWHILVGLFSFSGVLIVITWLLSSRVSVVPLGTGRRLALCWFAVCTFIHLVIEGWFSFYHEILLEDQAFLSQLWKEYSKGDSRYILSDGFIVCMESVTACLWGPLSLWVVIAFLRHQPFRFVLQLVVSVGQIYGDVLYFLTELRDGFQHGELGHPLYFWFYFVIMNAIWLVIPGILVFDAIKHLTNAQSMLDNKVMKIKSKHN", "experiment": "Determination of the Ki for ChEH on rat liver microsome proteins (Dixon method)", "type": "biochemical", "settings": "150 μg rat liver microsome proteins, [14C]CEα"}, "[8]": {"test_system": "HeLa", "experiment": "Inhibition of OCDO production by PBPE in HeLa", "type": "cell-based", "settings": "Homo sapiens, 40 μM PBPE, 48 hours", "method": "as §1, §2"}, "[9]": {"test_system": "TT", "experiment": "Inhibition of OCDO production by PBPE in TT", "type": "cell-based", "settings": "Homo sapiens, 48 h, read-out: Inhibition of OCDO production", "method": "as §1, §2"}, "[10]": {"test_system": "HT-29", "experiment": "Inhibition of OCDO production by PBPE in HT-29", "type": "cell-based", "settings": "Homo sapiens, 40 μM PBPE, 48 hours", "method": "as §1, §2"}, "[11]": {"test_system": "SH-N-SH", "experiment": "Inhibition of OCDO production by PBPE in SH-N-SH", "type": "cell-based", "settings": "Homo sapiens, 48 h, read-out: Inhibition of OCDO production", "method": "as §1, §2"}, "[12]": {"biological_target": "T2, ChEH (Homo sapiens, UniProt Q15125)", "T2 construct": "MCF7 tumor cells, which originate from the American Tissue Culture Collection (ATCC), were used; host or cells: MCF7", "T2 sequence (Q15125 whole entry)": "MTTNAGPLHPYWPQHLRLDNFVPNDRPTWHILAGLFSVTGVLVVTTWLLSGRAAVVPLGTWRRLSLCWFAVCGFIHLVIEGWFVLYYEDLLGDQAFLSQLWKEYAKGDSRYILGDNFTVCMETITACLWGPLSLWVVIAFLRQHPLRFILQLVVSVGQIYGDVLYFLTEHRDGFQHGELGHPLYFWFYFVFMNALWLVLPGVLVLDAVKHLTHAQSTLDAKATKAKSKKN", "experiment": "Inhibition of ChEH activity in MCF7 cells (TLC of [14C]CE conversion)", "type": "cell-based", "settings": "tamoxifen 0.01-5 μM with [14C]CEα; PBPE 0.01-10 μM with [14C]CEβ", "method": "For this experiment, an aminoalkyl sterol included in French patent 2 838 741 (and also see: de Medina et al., J Med Chem: 2009, vol. 52, No. 23, p. 7765-7777), having the formula: 6-N-[2-(3H-imidazol-4-yl)ethylamino]cholestane-3β,5α-diol (DDA), was chosen. […]\nA thin-layer chromatography was carried out, the plate of which has been reproduced in FIG. 23. On this plate, the incubation is carried out, for lane 1, with [^14C]CE; for lane 2, with [^14C]CT; for lane 3, with the vehicle solvent, which is the same as that used for assays 1 to 5; for lane 4, with [14C]CE and 0.1 μM of the aminoalkyl sterol; and for lane 5, with [^14C]CE and a concentration of 1 μM of the aminoalkyl sterol."}, "[13]": {"test_system": "U-937", "experiment": "Inhibition of OCDO production by PBPE in U-937", "type": "cell-based", "settings": "Homo sapiens, 40 μM PBPE, 48 hours", "method": "as §1, §2"}, "[14]": {"test_system": "C6", "experiment": "Inhibition of OCDO production by PBPE in C6", "type": "cell-based", "settings": "Rattus norvegicus, 40 μM PBPE, 48 hours", "method": "as §1, §2"}, "[15]": {"settings": "MCF7 cells, [14C]CEα, three days, concentration given with each compound, share of labeled oxysterols"}}, "data": [{"smiles": "c1ccc(Cc2ccc(OCCN3CCCC3)cc2)cc1", "note": "[PBPE, N,N-pyrrolidino-[(4-benzyl)phenoxy]ethanamine]", "values": [{"measurement": "inhibition at 40 µM", "setting": "[1]", "value": 100, "unit": "%"}, {"measurement": "inhibition at 40 µM", "setting": "[2]", "value": 100, "unit": "%"}, {"measurement": "inhibition at 40 µM", "setting": "[3]", "value": 100, "unit": "%"}, {"measurement": "inhibition at 40 µM", "setting": "[4]", "value": 100, "unit": "%"}, {"measurement": "inhibition at 40 µM", "setting": "[5]", "value": 100, "unit": "%"}, {"measurement": "inhibition at 40 µM", "setting": "[6]; Homo sapiens, MCF7, MCF-7, 40 μM PBPE, 48 hours", "value": 100, "unit": "%"}, {"measurement": "% CE", "setting": "[6]; [15]", "value": 89.2, "unit": "%"}, {"measurement": "% CT", "setting": "[6]; [15]", "value": 4.6, "unit": "%"}, {"measurement": "% OCDO", "setting": "[6]; [15]", "value": 6.2, "unit": "%"}, {"measurement": "OCDO production by MCF-7 (% control)", "setting": "[6]; concentration in μM in parentheses after each molecule, control = 100", "value": "<1", "unit": "% control"}, {"measurement": "Ki", "setting": "[7]", "value": "26.8 ± 6", "unit": "nM"}, {"measurement": "inhibition at 40 µM", "setting": "[8]", "value": 100, "unit": "%"}, {"measurement": "inhibition at 40 µM", "setting": "[9]", "value": 100, "unit": "%"}, {"measurement": "inhibition at 40 µM", "setting": "[10]", "value": 100, "unit": "%"}, {"measurement": "inhibition at 40 µM", "setting": "[11]", "value": 100, "unit": "%"}, {"measurement": "inhibition of the ChEH activity (3 days) in MCF7 cells", "setting": "[12]", "value": "Dose-dependent inhibition"}, {"measurement": "inhibition at 40 µM", "setting": "[13]", "value": 100, "unit": "%"}, {"measurement": "inhibition at 40 µM", "setting": "[14]", "value": 100, "unit": "%"}]}]}
